Laboratory results reported in ChEMBL document CHEMBL1201862, “PubChem BioAssay data set” (2004).
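Compound exposure: 48 hours, 5 concentrations, 96-well plates. GI50 marks 50% less growth.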 The source made the active and inactive calls. Cut-off read from the data, not from the text of the source: active = GI50 up to about 1.1 µM and inactive = higher.

What was measured:
Experiment in all cases: NCI anticancer screen, dose series, 48 h
SNB-75 = tested on: SNB-75
EKVX = tested on: EKVX
HL-60 = tested on: HL-60
KM-20L2 = tested on: KM-20L2
OVCAR-4 = tested on: OVCAR-4
UO-31 = tested on: UO-31
SR = tested on: SR
OVCAR-8 = tested on: OVCAR-8
SK-OV-3 = tested on: SK-OV-3
Malme-3M = tested on: Malme-3M
K562 = tested on: K562
UACC-257 = tested on: UACC-257
M14 = tested on: M14
NCI-H522 = tested on: NCI-H522
HOP-92 = tested on: HOP-92
A498 = tested on: A498
COLO 205 = tested on: COLO 205
PC-3 = tested on: PC-3
NCI/ADR-RES = tested on: NCI/ADR-RES
MDA-N = tested on: MDA-N

SMILES | GI50 (SNB-75) | GI50 (EKVX) | GI50 (HL-60) | GI50 (KM-20L2) | GI50 (OVCAR-4) | GI50 (UO-31) | GI50 (SR) | GI50 (OVCAR-8) | GI50 (SK-OV-3) | GI50 (Malme-3M) | GI50 (K562) | GI50 (UACC-257) | GI50 (M14) | GI50 (NCI-H522) | GI50 (HOP-92) | GI50 (A498) | GI50 (COLO 205) | GI50 (PC-3) | GI50 (NCI/ADR-RES) | GI50 (MDA-N)
Cc1cc(Cl)ccc1NC(=O)/C(=N\NC(C)(C)C)C(C#N)c1nc(-c2ccc([N+](=O)[O-])cc2)cs1 (centres undefined) | > 100 µM (inactive) | > 100 µM (inactive) | > 100 µM (inactive) | > 100 µM (inactive) | > 100 µM (inactive) | > 100 µM (inactive) | > 100 µM (inactive) | > 100 µM (inactive) | > 100 µM (inactive) | > 100 µM (inactive) | > 100 µM (inactive) | > 100 µM (inactive) | > 100 µM (inactive) | > 100 µM (inactive) | > 100 µM (inactive) | > 100 µM (inactive) | – | – | – | –
Cc1cc(Cl)cc2c1NC(=O)C2(O)CC(=O)c1ccc(Br)cc1 (centres undefined) | 45.5 µM (inactive) | 59.4 µM (inactive) | 16.9 µM (inactive) | > 91.4 µM (inactive) | 14.2 µM (inactive) | > 100 µM (inactive) | – | 38.2 µM (inactive) | > 100 µM (inactive) | > 100 µM (inactive) | 21.6 µM (inactive) | 32.6 µM (inactive) | 52 µM (inactive) | 45.7 µM (inactive) | 94.4 µM (inactive) | 37.8 µM (inactive) | > 100 µM (inactive) | – | – | –
CO[C@H](c1ccccc1)[C@H](C)N(C)c1ccc2ccccc2c1C1=NC(C)(C)CO1 | 15.5 µM (inactive) | 20.1 µM (inactive) | 21.3 µM (inactive) | 13.4 µM (inactive) | > 10 µM (inactive) | 13.7 µM (inactive) | 13.3 µM (inactive) | 13.8 µM (inactive) | 19.2 µM (inactive) | 16.3 µM (inactive) | 11.7 µM (inactive) | 15.7 µM (inactive) | 16.5 µM (inactive) | 4.21 µM (inactive) | 15.7 µM (inactive) | – | 13.8 µM (inactive) | – | – | –
CCOC(=O)c1c[nH]c2c(ccc3nn(C)nc32)c1=O | > 100 µM (inactive) | > 100 µM (inactive) | 57.3 µM (inactive) | > 100 µM (inactive) | – | > 100 µM (inactive) | 84.1 µM (inactive) | > 100 µM (inactive) | > 100 µM (inactive) | > 100 µM (inactive) | 49.7 µM (inactive) | > 100 µM (inactive) | > 100 µM (inactive) | > 100 µM (inactive) | > 100 µM (inactive) | > 100 µM (inactive) | 38.3 µM (inactive) | – | – | –
Cc1c(C(=O)CC(=O)C(=O)Nc2ccc(Cl)c(Cl)c2)[n+]([O-])c2ccccc2[n+]1[O-] | 18.9 µM (inactive) | 12.5 µM (inactive) | 17.8 µM (inactive) | 52.5 µM (inactive) | 15.2 µM (inactive) | 55.1 µM (inactive) | – | 17.2 µM (inactive) | 41.6 µM (inactive) | 18.8 µM (inactive) | 23.8 µM (inactive) | 17.5 µM (inactive) | 18.1 µM (inactive) | 18.9 µM (inactive) | 27.5 µM (inactive) | > 100 µM (inactive) | 19.4 µM (inactive) | – | – | –
CC1=C(C(=O)Nc2cc(=O)n(C)c(=O)n2C)C(c2cccc([N+](=O)[O-])c2)C(C(=O)Nc2cc(=O)n(C)c(=O)n2C)=C(C)N1 | 17.5 µM (inactive) | 15.9 µM (inactive) | > 100 µM (inactive) | > 100 µM (inactive) | > 100 µM (inactive) | 56.1 µM (inactive) | – | > 100 µM (inactive) | > 100 µM (inactive) | > 100 µM (inactive) | 72.4 µM (inactive) | > 100 µM (inactive) | > 100 µM (inactive) | 44.5 µM (inactive) | 58.7 µM (inactive) | 49.5 µM (inactive) | > 100 µM (inactive) | – | – | –
C=C1C(O)C2(O)OCC34C(CC5C(C)=CC(=O)C(O)C5(C)C23)OC(=O)C(OC(=O)C/C=C(\C)CCCCC)C14 (centres undefined) | 0.0153 µM (active) | 0.0198 µM (active) | 0.0125 µM (active) | 0.0149 µM (active) | 0.0125 µM (active) | 0.0787 µM (active) | < 0.01 µM (active) | 0.0125 µM (active) | 0.0133 µM (active) | – | 0.0125 µM (active) | 0.0125 µM (active) | < 0.001 µM (active) | 0.0125 µM (active) | 0.0147 µM (active) | 0.0148 µM (active) | 0.0154 µM (active) | < 0.001 µM (active) | 0.624 µM (active) | < 0.001 µM (active)
COC(=O)CC(NC(=O)OCc1ccccc1)C(C(=O)OCc1ccccc1)C1(C)OCCO1 (centres undefined) | 23.6 µM (inactive) | 44.4 µM (inactive) | 21.1 µM (inactive) | 45.5 µM (inactive) | 67.6 µM (inactive) | 18.2 µM (inactive) | 19.1 µM (inactive) | 25.2 µM (inactive) | – | 33.3 µM (inactive) | 43.4 µM (inactive) | 30.4 µM (inactive) | 40.7 µM (inactive) | – | – | 18.2 µM (inactive) | 18.6 µM (inactive) | – | – | –
